Measured values published in US10851083B2, “Benzoimidazoles as prolyl hydroxylase inhibitors” (Janssen Pharmaceutica NV, priority 2008, dated 2020).

Assays:
[1] = tested on: Hep-3B cells; assay: Cellular assay: EPO secretion in Hep-3B cells; type: cell-based, human; set-up: EPO secretion, % of control compound: dose or concentration left out as unconfirmed; settings: Homo sapiens, Hep3B, 24 h, EPO secretion as percentage of control compound 7-[(4-Chloro-phenyl)-(5-methyl-isoxazol-3-ylamino)-methyl]-quinolin-8-ol, read-out: Cellular % EPO Stimulation
[2] = molecular target: human PHD2181-417 (Homo sapiens (Human), UniProt Q9GZT9); assay: PHD2 enzyme activity assay ([14C]-succinic acid production); type: biochemical; settings: PHD2181-417 polypeptide, HIF-1α peptide 10 μM, [5-14C]-2-oxoglutaric acid; 30 min pre-incubation; tested 10 μM to 3 nM;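 also: reaction ran 10 min with compound in Tris pH 7.5 buffer with catalase, DTT and ascorbate, labelled succinate freed of leftover 2-oxoglutarate by DNP precipitation, then beta counted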
Sequence of human PHD2181-417 (Q9GZT9 181-417): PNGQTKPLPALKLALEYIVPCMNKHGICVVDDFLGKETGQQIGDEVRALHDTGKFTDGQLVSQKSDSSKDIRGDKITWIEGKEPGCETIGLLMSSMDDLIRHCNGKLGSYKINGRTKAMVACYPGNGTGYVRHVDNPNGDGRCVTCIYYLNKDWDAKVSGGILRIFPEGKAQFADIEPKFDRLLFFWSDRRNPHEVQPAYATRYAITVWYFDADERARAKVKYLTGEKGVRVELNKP

| Structure (SMILES) | Enzyme pIC50 [2] | EPO secretion, % of control compound [1] [%] |
| --- | --- | --- |
| O=C(O)c1cnn(-c2nc3cc(OCc4ccccc4)c(Cl)cc3[nH]2)c1 [Example 59, 1-(5-Benzyloxy-6-chloro-1H-benzoimidazol-2-yl)-1H-pyrazole-4-carboxylic Acid] | 6.4 | 55.9 |
| O=C(O)c1cnn(-c2nc3cc(Oc4ccc(Cl)cc4)c(Cl)cc3[nH]2)c1 [Example 51, 1-[6-Chloro-5-(4-chloro-phenoxy)-1H-benzoimidazol-2-yl]-1H-pyrazole-4-carboxylic Acid] | 7.4 | 150 |
| O=C(O)c1cnn(-c2nc3cc(SCc4ccc(F)cc4)c(Cl)cc3[nH]2)c1 [Example 68, 1-[6-Chloro-5-(4-fluoro-benzylsulfanyl)-1H-benzoimidazol-2-yl]-1H-pyrazole-4-carboxylic Acid] | 6.8 | 58.4 |
| CC(C)(C)c1ccc(CSc2cc3nc(-n4cc(C(=O)O)cn4)[nH]c3cc2Cl)cc1 [Example 67, 1-[5-(4-tert-Butyl-benzylsulfanyl)-6-chloro-1H-benzoimidazol-2-yl]-1H-pyrazole-4-carboxylic Acid] | 7.2 | 11.7 |
| CC(C)Sc1cc2[nH]c(-n3cc(C(=O)O)cn3)nc2cc1Cl [Example 77, 1-(5-Chloro-6-isopropylsulfanyl-1H-benzoimidazol-2-yl)-1H-pyrazole-4-carboxylic Acid] | 6.8 | 153 |
| Cc1cc(Cl)cc2[nH]c(-n3cc(C(=O)O)cn3)nc12 [Example 33, 1-(6-Chloro-4-methyl-1H-benzoimidazol-2-yl)-1H-pyrazole-4-carboxylic Acid] | 6 | 13.4 |
| O=C(O)c1cnn(-c2nc3cc(F)c(F)cc3[nH]2)c1 [Example 36, 1-(5,6-Difluoro-1H-benzoimidazol-2-yl)-1H-pyrazole-4-carboxylic Acid] | 6.6 | 79.4 |
| COc1cccc(Sc2cc3nc(-n4cc(C(=O)O)cn4)[nH]c3cc2Cl)c1 [Example 64, 1-[6-Chloro-5-(3-methoxy-phenylsulfanyl)-1H-benzoimidazol-2-yl]-1H-pyrazole-4-carboxylic Acid] | 6.9 | 38.3 |
| O=C(O)c1cnn(-c2nc3cc(S(=O)(=O)c4ccc(Cl)cc4)c(Cl)cc3[nH]2)c1 [Example 85, 1-[6-Chloro-5-(4-chloro-benzenesulfonyl)-1H-benzoimidazol-2-yl]-1H-pyrazole-4-carboxylic Acid] | 7.3 | 51.6 |
| O=C(O)c1cnn(-c2nc3cc([S+]([O-])c4ccc(Cl)cc4)c(Cl)cc3[nH]2)c1 (stereo not shown) [Example 107] | 7.2 | 47.6 |
| O=C(O)c1cnn(-c2nc3cc(S(=O)(=O)Cc4ccccc4Cl)c(Cl)cc3[nH]2)c1 [Example 93, 1-[6-Chloro-5-(2-chloro-phenylmethanesulfonyl)-1H-benzoimidazol-2-yl]-1H-pyrazole-4-carboxylic Acid] | 7.5 | 78.5 |
| O=C(O)c1cnn(-c2nc3c(F)cc(F)cc3[nH]2)c1 [Example 112, 1-(4,6-Difluoro-1H-benzoimidazol-2-yl)-1H-pyrazole-4-carboxylic Acid] | 6.8 | 32 |
| CS(=O)(=O)c1cc2[nH]c(-n3cc(C(=O)O)cn3)nc2cc1F [Example 98, 1-(5-Fluoro-6-methanesulfonyl-1H-benzoimidazol-2-yl)-1H-pyrazole-4-carboxylic Acid] | 7.3 | 41.4 |
| CS(=O)(=O)c1cc2[nH]c(-n3cc(C(=O)O)cn3)nc2cc1OC(F)(F)F [Example 100, 1-(6-Methanesulfonyl-5-trifluoromethoxy-1H-benzoimidazol-2-yl)-1H-pyrazole-4-carboxylic Acid] | 7.5 | 50.2 |
| CS(=O)(=O)c1cc2[nH]c(-n3cc(C(=O)O)cn3)nc2cc1C(F)(F)F [Example 97, 1-(6-Methanesulfonyl-5-trifluoromethyl-1H-benzoimidazol-2-yl)-1H-pyrazole-4-carboxylic Acid] | 7.6 | 75.9 |
| O=C(O)c1ccc2[nH]c(-n3cc(C(=O)O)cn3)nc2c1 [Example 47, 2-(4-Carboxy-pyrazol-1-yl)-1H-benzoimidazole-5-carboxylic Acid] | 6.6 | 11 |

The next lines start with results.

| Enzyme pIC50 [2] | Structure (SMILES) | EPO secretion, % of control compound [1] [%] |
| --- | --- | --- |
| 6.3 | O=C(O)c1cnn(-c2nc3cc(COCc4ccccc4)ccc3[nH]2)c1 [Example 123, 1-(5-Benzyloxymethyl-1H-benzoimidazol-2-yl)-1H-pyrazole-4-carboxylic Acid] | 61.1 |
| 6.9 | O=C(O)c1cnn(-c2nc3c(Cl)c(Cl)c(Cl)cc3[nH]2)c1 [Example 127, 1-(4,5,6-Trichloro-1H-benzoimidazol-2-yl)-1H-pyrazole-4-carboxylic Acid] | 70.6 |
| 7.4 | O=C(O)c1cnn(-c2nc3cc(Sc4ccccc4)c(C(F)(F)F)cc3[nH]2)c1 [Example 159, 1-(5-Phenylsulfanyl-6-trifluoromethyl-1H-benzoimidazol-2-yl)-1H-pyrazole-4-carboxylic Acid] | 11 |
| 6.4 | CN1CCN(CC(=O)Nc2cc3nc(-n4cc(C(=O)O)cn4)[nH]c3cc2Cl)CC1 [Example 144, 1-{6-Chloro-5-[2-(4-methyl-piperazin-1-yl)-acetylamino]-1H-benzoimidazol-2-yl}-1H-pyrazole-4-carboxylic Acid] | 16 |
| 7.1 | COc1ccc(Oc2cc3nc(-n4cc(C(=O)O)cn4)[nH]c3cc2Cl)cc1 [Example 145, 1-[6-Chloro-5-(4-methoxy-phenoxy)-1H-benzoimidazol-2-yl]-1H-pyrazole-4-carboxylic Acid] | 13.9 |
| 7.1 | O=C(O)c1cnn(-c2nc3c(Br)c(Cl)c(Cl)cc3[nH]2)c1 [Example 128, 1-(4-Bromo-5,6-dichloro-1H-benzoimidazol-2-yl)-1H-pyrazole-4-carboxylic Acid] | 24.1 |
| 7.3 | CCSc1cc2nc(-n3cc(C(=O)O)cn3)[nH]c2cc1C(F)(F)F [Example 149, 1-(5-Ethylsulfanyl-6-trifluoromethyl-1H-benzoimidazol-2-yl)-1H-pyrazole-4-carboxylic Acid] | 57.8 |
| 6.6 | O=C(O)c1cnn(-c2nc3cc(NC(=O)c4ccccc4)c(Cl)cc3[nH]2)c1 [Example 141, 1-(5-Benzoylamino-6-chloro-1H-benzoimidazol-2-yl)-1H-pyrazole-4-carboxylic Acid] | 33 |
| 6.6 | O=C(O)c1cnn(-c2nc3cc(SCc4cccc(Cl)c4)c(Cl)cc3[nH]2)c1 [Example 164, 1-[6-Chloro-5-(3-chloro-benzylsulfanyl)-1H-benzoimidazol-2-yl]-1H-pyrazole-4-carboxylic Acid] | 27.4 |
| 6.1 | O=C(O)c1cnn(-c2nc3c(ccc4ccccc43)[nH]2)c1 [Example 115, 1-(3H-Naphtho[1,2-d]imidazol-2-yl)-1H-pyrazole-4-carboxylic Acid] | 50 |
